The text below walks through data of ChEMBL document CHEMBL4425188, “Synthesis and immunostimulatory activity of substituted TLR7 agonists” (Bioorg Med Chem Lett, 2016).

Structures are written as SMILES. Calls of active or inactive are those of the source. The rule behind the calls is not given here.

Assay [1] addresses T1, Toll-like receptor 9 (Homo sapiens) (UniProt Q9NR96).
T1 sequence (whole entry): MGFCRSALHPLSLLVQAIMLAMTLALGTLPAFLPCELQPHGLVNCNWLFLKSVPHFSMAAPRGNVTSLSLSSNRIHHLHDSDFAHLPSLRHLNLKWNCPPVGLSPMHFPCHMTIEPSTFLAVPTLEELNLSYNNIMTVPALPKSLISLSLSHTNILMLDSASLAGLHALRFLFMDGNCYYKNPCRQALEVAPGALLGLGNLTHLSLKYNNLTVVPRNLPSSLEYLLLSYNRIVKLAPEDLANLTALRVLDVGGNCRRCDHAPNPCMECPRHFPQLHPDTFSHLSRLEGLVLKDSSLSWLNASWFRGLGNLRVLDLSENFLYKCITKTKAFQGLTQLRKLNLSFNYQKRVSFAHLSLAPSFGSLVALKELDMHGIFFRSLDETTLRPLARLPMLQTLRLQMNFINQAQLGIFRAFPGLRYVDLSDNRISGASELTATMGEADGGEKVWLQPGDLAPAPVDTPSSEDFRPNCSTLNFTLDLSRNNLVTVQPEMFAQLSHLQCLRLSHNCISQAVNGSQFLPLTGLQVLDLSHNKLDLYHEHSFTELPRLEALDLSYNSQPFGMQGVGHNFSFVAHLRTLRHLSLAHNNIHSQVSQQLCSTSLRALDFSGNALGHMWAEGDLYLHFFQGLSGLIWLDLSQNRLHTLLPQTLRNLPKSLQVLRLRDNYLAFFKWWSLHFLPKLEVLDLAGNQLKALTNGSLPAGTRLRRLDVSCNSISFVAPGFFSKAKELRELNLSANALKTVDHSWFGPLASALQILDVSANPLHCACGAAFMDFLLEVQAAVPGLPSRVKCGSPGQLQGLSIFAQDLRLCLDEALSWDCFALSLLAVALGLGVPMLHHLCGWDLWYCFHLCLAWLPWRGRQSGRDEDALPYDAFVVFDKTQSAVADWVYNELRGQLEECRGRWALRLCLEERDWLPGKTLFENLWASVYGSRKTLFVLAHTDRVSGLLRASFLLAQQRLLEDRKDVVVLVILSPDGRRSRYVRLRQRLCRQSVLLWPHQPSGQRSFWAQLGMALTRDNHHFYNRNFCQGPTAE
As to the kind of experiment: Agonist activity at human TLR9 expressed in HEK293 cells at 5 to 1000 ng/ml by QUANTI-blue SEAP reporter gene assay. In kind it is cell-based.

Assay [2] addresses T2, Toll-like receptor 7 (Homo sapiens) (UniProt Q9NYK1).
T2 sequence (whole entry): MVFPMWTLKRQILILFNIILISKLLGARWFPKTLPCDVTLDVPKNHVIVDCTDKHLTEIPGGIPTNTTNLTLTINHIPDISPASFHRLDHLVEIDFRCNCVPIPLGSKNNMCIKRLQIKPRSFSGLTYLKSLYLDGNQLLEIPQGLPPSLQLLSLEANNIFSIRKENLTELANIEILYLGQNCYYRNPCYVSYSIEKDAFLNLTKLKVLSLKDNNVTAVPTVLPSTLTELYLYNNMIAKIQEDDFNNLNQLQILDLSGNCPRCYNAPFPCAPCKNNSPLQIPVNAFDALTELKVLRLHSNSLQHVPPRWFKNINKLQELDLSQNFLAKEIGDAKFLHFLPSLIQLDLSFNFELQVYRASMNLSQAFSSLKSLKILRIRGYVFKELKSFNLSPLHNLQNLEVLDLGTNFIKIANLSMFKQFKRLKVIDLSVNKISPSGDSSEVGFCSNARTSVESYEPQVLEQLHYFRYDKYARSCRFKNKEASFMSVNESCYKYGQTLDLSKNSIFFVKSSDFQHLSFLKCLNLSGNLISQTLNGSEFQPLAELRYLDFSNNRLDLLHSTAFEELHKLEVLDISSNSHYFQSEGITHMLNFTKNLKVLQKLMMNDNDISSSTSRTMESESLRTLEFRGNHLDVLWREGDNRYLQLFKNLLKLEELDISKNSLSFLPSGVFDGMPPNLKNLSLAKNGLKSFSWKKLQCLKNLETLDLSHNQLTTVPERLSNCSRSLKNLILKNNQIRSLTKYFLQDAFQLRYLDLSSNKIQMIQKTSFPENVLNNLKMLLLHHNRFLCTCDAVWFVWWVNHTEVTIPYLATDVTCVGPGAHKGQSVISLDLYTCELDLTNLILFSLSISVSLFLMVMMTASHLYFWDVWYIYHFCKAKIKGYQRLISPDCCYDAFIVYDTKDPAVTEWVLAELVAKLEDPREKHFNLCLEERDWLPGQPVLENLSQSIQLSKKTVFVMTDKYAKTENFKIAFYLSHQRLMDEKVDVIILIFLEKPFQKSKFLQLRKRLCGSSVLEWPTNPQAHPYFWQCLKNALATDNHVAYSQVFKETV
As to the kind of experiment: Agonist activity at human TLR7 expressed in HEK293 cells at <= 50 ng/ml by QUANTI-blue SEAP reporter gene assay. In kind it is cell-based.

The test system of a further assay is T-cell. As to the kind of experiment: Immunostimulatory activity in CFSE-labeled human T cells assessed as TLR7 agonist-induced cell proliferation at 2 to 200 nM after 6 days by FACS analysis. In kind it is functional, cell-based.
For the next assay, the system named is B cell. Put plainly: Immunostimulatory activity in CFSE-labeled human B cells assessed as TLR7 agonist-induced cell proliferation after 6 days by FACS analysis. Particulars: 144 h. In kind it is functional, cell-based.
A further assay relates to HEK293. Put plainly: Induction of SEAP reporter gene expression in TLR-deficient HEK293 cells at 5 to 1000 ng/ml. In kind it is functional, cell-based. The note with it: Homo sapiens.
The target of assay [3] is T3, Toll-like receptor 8 (Homo sapiens) (UniProt Q9NR97).
T3 sequence (whole entry): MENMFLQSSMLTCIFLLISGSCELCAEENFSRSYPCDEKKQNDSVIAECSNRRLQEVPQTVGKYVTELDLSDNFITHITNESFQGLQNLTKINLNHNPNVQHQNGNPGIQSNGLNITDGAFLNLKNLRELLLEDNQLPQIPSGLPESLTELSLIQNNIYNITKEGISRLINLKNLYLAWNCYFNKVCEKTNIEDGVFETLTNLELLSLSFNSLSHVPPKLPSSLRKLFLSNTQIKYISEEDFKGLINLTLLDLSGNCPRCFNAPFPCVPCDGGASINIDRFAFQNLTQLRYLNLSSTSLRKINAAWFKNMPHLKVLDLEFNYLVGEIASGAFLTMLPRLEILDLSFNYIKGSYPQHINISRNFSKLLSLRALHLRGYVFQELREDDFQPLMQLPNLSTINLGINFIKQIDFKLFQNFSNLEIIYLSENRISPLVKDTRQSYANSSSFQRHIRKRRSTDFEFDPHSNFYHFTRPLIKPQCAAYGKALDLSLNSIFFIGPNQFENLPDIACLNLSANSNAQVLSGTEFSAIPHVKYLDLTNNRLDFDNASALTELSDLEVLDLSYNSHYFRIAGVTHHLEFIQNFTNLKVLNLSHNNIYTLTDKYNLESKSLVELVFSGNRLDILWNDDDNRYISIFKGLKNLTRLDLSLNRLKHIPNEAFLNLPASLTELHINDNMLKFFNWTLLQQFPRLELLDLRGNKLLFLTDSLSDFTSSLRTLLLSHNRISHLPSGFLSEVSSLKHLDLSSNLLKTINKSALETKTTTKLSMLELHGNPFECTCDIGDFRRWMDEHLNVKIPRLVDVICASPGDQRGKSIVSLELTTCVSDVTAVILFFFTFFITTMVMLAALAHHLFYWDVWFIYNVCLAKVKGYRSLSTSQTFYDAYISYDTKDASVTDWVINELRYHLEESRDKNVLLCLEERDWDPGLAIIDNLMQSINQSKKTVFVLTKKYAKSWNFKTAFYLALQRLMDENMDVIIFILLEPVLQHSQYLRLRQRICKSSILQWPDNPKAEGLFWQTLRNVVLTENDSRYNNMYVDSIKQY
Put plainly: Agonist activity at human TLR8 expressed in HEK293 cells at 5 to 1000 ng/ml by QUANTI-blue SEAP reporter gene assay. In kind it is cell-based.

For assay [4], the target named is T2, Toll-like receptor 7 (Homo sapiens). As to the kind of experiment: Agonist activity at human TLR7 expressed in HEK293 cells at 1 ng/ml by QUANTI-blue SEAP reporter gene assay. In kind it is cell-based.
The species named for a further assay is Homo sapiens. As to the kind of experiment: Immunostimulatory activity in CFSE-labeled human NK cells assessed as TLR7 agonist-induced cell proliferation at 2 to 200 nM after 6 days by FACS analysis. In kind it is functional.
Assay [5] concerns the target T2, Toll-like receptor 7 (Homo sapiens). Put plainly: Agonist activity at human TLR7 expressed in HEK293 cells at <= 500 ng/ml by QUANTI-blue SEAP reporter gene assay. In kind it is cell-based.

Consider `CCCCOc1nc(N)c2nc(O)n(Cc3ccc(C(=O)NCCCCN)cc3)c2n1`, for which the result (in [1]; in the assay on T-cell; in the assay on HEK293; in assay [3]; in assay [4]; in the assay filed under Homo sapiens) was inactive. Moreover, the outcome in assay [2] was Active. Besides, the EC50 with B cell was 47.4 nM.

As for `CCCCOc1nc(N)c2c(n1)n(Cc1ccccc1)c(=O)n2Cc1ccccc1`, the outcome (in assay [1]; in the assay with HEK293; in assay [3]; in [4]) was inactive.

Take `CCCCOc1nc(N)c2nc(NC)n(Cc3ccccc3)c2n1`: the result (in assay [1]; in the assay with T-cell; in the assay with HEK293; in assay [3]; in the assay listed under Homo sapiens) was inactive. Besides, the outcome in [5] was Active. Also, in the assay on B cell, the EC50 is 969 nM.

With `CCCCOc1nc(N)c2nc(O)n(Cc3ccc(C(=O)NCc4ccc(OC)cc4)cc3)c2n1`, the outcome (in [1]; with T-cell; in the assay with HEK293; in assay [3]; in the assay listed under Homo sapiens) was inactive. In [5], the outcome was Active. In the assay on B cell, the EC50 was 60.5 nM.

Consider `CCCCOc1nc(N)c2nc(O)n(Cc3ccc(C(=O)NCCNC(=O)C4CCC(CN5C(=O)C=CC5=O)CC4)cc3)c2n1` (centres undefined), for which the result (in [1]; in the assay on HEK293; in [3]) was inactive. Besides, the outcome in [5] was Active.

For the compound `CCCCOc1nc(N)c2nc(O)n(Cc3ccc(C(=O)NCCC(=O)N4Cc5ccccc5C#Cc5ccccc54)cc3)c2n1`, the outcome (in [1]; with HEK293; in [3]) was inactive. Further, the result in [5] was Active.

In the case of `CCCCOc1nc(N)c2nc(SCc3ccc(C#N)cc3)n(Cc3ccccc3)c2n1`, the result (in assay [1]; with HEK293; in [3]; in assay [4]) was inactive.

On to `CCCCOc1nc(N)c2nc(SCC(=O)OC(C)(C)C)n(Cc3ccccc3)c2n1`, for which the outcome (in assay [1]; in the assay with HEK293; in assay [3]; in [4]) was inactive.

Turning to `CCCCOc1nc(N)c2nc(O)n(Cc3ccc(C(=O)NCCOCCOCCNC(=O)OC(C)(C)C)cc3)c2n1`, the result (in assay [1]; in the assay on T-cell; in the assay with HEK293; in assay [3]; in the assay listed under Homo sapiens) was inactive. For the same compound, the outcome in assay [5] was Active. In the assay on B cell, the EC50 was found to be 46.4 nM.
